Columns and labels:
[1] = biological target: T1, Xanthine dehydrogenase/oxidase (Bos taurus, UniProt P80457); test: Inhibition of bovine XO using xanthine as substrate after 120 mins by spectrophotometric analysis
[2] = biological target: T1, Xanthine dehydrogenase/oxidase; test: Inhibition of bovine XO at 10 ug/ml using xanthine as substrate after 120 mins by spectrophotometric analysis; conditions: cattle, 2 h
[3] = biological target: T1, Xanthine dehydrogenase/oxidase; test: Ratio of Febuxostat IC50 to compound IC50 for bovine XO; conditions: cattle
[4] = biological target: T1, Xanthine dehydrogenase/oxidase; test: Mixed-type inhibition of bovine XO using xanthine as substrate by Lineweaver-Burk plot analysis; conditions: cattle

T1 sequence (P80457 whole entry): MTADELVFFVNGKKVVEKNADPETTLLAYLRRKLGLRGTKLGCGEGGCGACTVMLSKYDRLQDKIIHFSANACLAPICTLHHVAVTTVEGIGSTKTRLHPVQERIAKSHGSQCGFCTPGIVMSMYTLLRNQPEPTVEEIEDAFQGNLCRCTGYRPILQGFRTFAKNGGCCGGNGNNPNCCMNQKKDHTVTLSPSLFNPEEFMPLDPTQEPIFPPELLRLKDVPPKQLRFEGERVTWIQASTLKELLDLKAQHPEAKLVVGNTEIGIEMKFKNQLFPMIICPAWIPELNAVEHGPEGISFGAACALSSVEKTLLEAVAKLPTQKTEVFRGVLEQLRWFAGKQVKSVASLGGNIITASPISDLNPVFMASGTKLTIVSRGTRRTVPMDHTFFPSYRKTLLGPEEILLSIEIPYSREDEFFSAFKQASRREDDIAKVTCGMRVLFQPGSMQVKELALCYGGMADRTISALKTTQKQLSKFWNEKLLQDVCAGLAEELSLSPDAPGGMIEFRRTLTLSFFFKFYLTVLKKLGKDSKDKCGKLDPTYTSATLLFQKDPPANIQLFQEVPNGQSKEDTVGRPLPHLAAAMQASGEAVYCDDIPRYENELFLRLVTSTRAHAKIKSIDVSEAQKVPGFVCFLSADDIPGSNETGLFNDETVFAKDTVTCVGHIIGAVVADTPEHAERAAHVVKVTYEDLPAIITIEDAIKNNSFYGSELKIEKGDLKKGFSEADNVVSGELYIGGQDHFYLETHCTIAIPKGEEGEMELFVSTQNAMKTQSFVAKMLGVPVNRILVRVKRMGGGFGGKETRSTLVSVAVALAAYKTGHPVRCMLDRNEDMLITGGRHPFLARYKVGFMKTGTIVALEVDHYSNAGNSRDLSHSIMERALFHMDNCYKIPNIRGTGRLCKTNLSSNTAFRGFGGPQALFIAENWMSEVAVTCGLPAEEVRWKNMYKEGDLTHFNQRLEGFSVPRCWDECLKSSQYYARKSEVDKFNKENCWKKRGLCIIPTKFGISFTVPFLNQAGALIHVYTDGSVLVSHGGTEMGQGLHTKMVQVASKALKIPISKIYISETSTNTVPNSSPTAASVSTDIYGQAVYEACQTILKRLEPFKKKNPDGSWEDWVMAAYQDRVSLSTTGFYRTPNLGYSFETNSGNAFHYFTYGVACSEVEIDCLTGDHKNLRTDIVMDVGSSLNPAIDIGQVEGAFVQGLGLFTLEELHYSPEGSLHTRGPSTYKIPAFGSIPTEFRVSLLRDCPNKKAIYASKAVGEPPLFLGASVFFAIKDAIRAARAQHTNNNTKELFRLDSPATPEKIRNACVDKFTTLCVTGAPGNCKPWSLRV

COc1ccc(-c2nc(C)c(C(=O)O)n2O)cc1C#N
IC50 [1]: 550 nM | inhibition (INH) [2]: 90.14%

CCCOc1ccc(-c2nc(C)c(C(=O)O)n2O)cc1C#N
IC50 [1]: 130 nM | inhibition (INH) [2]: 89.77%

Cc1nc(-c2ccc(OC(C)C)c(C#N)c2)n(O)c1C(=O)O
IC50 [1]: 170 nM | inhibition (INH) [2]: 91.04%

CCCCOc1ccc(-c2nc(C)c(C(=O)O)n2O)cc1C#N
IC50 [1]: 3 nM | Ratio IC50 [3]: 3.3 | inhibition (INH) [2]: 89.57%

CCC(C)Oc1ccc(-c2nc(C)c(C(=O)O)n2O)cc1C#N (stereo not drawn)
IC50 [1]: 3 nM | Ratio IC50 [3]: 3.3 | inhibition (INH) [2]: 88.33%

Cc1nc(-c2ccc(OCC(C)C)c(C#N)c2)n(O)c1C(=O)O
IC50 [1]: 6 nM | inhibition (INH) ([1]; cattle, 2 h): Dose-dependent effect | Ratio IC50 [3]: 1.7 | inhibition (INH) [4]: Active | inhibition (INH) [2]: 94.08%

Cc1nc(-c2ccc(OCCC(C)C)c(C#N)c2)n(O)c1C(=O)O
IC50 [1]: 30 nM | inhibition (INH) [2]: 91.25%

CCCCCCOc1ccc(-c2nc(C)c(C(=O)O)n2O)cc1C#N
IC50 [1]: 30 nM | inhibition (INH) [2]: 92.51%

CCCCCCCOc1ccc(-c2nc(C)c(C(=O)O)n2O)cc1C#N
IC50 [1]: 110 nM | inhibition (INH) [2]: 89.93%

CCCCCCCCOc1ccc(-c2nc(C)c(C(=O)O)n2O)cc1C#N
IC50 [1]: 1200 nM | inhibition (INH) [2]: 88.17%

Cc1ccc(COc2ccc(-c3nc(C)c(C(=O)O)n3O)cc2C#N)cc1
IC50 [1]: 110 nM | inhibition (INH) [2]: 91.65%

COc1ccc(-c2nc(C)c(C(=O)O)n2OC)cc1C#N
inhibition (INH) [2]: 10.68%

CCCOc1ccc(-c2nc(C)c(C(=O)O)n2OC)cc1C#N
inhibition (INH) [2]: 18.34%

COn1c(-c2ccc(OC(C)C)c(C#N)c2)nc(C)c1C(=O)O
inhibition (INH) [2]: 32.91%

CCCCOc1ccc(-c2nc(C)c(C(=O)O)n2OC)cc1C#N
inhibition (INH) [2]: 41.19%

CCC(C)Oc1ccc(-c2nc(C)c(C(=O)O)n2OC)cc1C#N (stereo not drawn)
IC50 [1]: 1500 nM | inhibition (INH) [2]: 83.13%

COn1c(-c2ccc(OCC(C)C)c(C#N)c2)nc(C)c1C(=O)O
inhibition (INH) [2]: 31.91%

COn1c(-c2ccc(OCCC(C)C)c(C#N)c2)nc(C)c1C(=O)O
IC50 [1]: 8000 nM | inhibition (INH) [2]: 59.55%

CCCCCCOc1ccc(-c2nc(C)c(C(=O)O)n2OC)cc1C#N
IC50 [1]: 3900 nM | inhibition (INH) [2]: 80.34%

CCCCCCCOc1ccc(-c2nc(C)c(C(=O)O)n2OC)cc1C#N
inhibition (INH) [2]: 26.8%

CCCCCCCCOc1ccc(-c2nc(C)c(C(=O)O)n2OC)cc1C#N
inhibition (INH) [2]: 19%

COn1c(-c2ccc(OCc3ccc(C)cc3)c(C#N)c2)nc(C)c1C(=O)O
IC50 [1]: 1100 nM | inhibition (INH) [2]: 86.72%

Cc1nc(-c2ccc(OCC(C)C)c(C#N)c2)sc1C(=O)O [FEBUXOSTAT]
inhibition (INH) [2]: 90.89%
